Results as given in PubChem BioAssay (NCI).
Where “and” joins values, the source holds several entries; their conditions need not be identical. Equal values may be shown once.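 Growth conditions: 96-well plates. Treatment: test compound, 48 hours, 5 concentrations. Analysis: linear interpolation between bracketing concentrations; unreached endpoints set to highest concentration. Here, GI50 denotes the concentration required for 50% inhibition of growth. TGI denotes the concentration required for complete inhibition of growth.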

What was measured:
Assay in all cases: NCI anticancer screen, dose series, 48 h
A498 renal = tested on: A498 renal
A549 NSCLC = tested on: A549 NSCLC
EKVX NSCLC = tested on: EKVX NSCLC
K-562 leukemia = tested on: K-562 leukemia
MCF7 breast = tested on: MCF7 breast
MDA-MB-231 breast = tested on: MDA-MB-231 breast
OVCAR-4 ovarian = tested on: OVCAR-4 ovarian
SF-268 CNS = tested on: SF-268 CNS
SK-MEL-28 melanoma = tested on: SK-MEL-28 melanoma
UO-31 renal = tested on: UO-31 renal

## O=C(CCl)c1ccc([N+](=O)[O-])o1
A498 renal
  GI50: 13.6 µM
  TGI: 27.5 µM
A549 NSCLC
  GI50: 21.1 µM
  TGI: 54.4 µM
EKVX NSCLC
  GI50: 10.7 µM
  TGI: 32.6 µM
K-562 leukemia
  GI50: 1.18 µM
  TGI: > 19.8 µM
MCF7 breast
  GI50: 1.87 µM
  TGI: 5.82 µM
MDA-MB-231 breast
  GI50: 4.9 µM
  TGI: 13.7 µM
OVCAR-4 ovarian
  GI50: 1.73 µM
  TGI: 3.32 µM
SF-268 CNS
  GI50: 2.54 µM
  TGI: 6.8 µM
SK-MEL-28 melanoma
  GI50: 1.61 µM
  TGI: 3.14 µM
UO-31 renal
  GI50: 2.14 µM
  TGI: 6.7 µM

## Nc1nc(/C=C\c2ccc([N+](=O)[O-])o2)nc(N2CCN(c3ccccc3)CC2)n1
A498 renal
  GI50: 21.5 µM
  TGI: 49.4 µM
A549 NSCLC
  GI50: 19.9 µM
  TGI: 86.5 µM
EKVX NSCLC
  GI50: 23.1 µM
  TGI: > 100 µM
K-562 leukemia
  GI50: 4.63 µM
  TGI: 26.7 µM
MCF7 breast
  GI50: 3.07 µM
  TGI: 29.1 µM
MDA-MB-231 breast
  GI50: 3.51 µM
  TGI: 13.3 µM
OVCAR-4 ovarian
  GI50: 27.2 µM
  TGI: > 100 µM
SF-268 CNS
  GI50: 11.7 µM
  TGI: > 100 µM
SK-MEL-28 melanoma
  GI50: 14.1 µM
  TGI: 40.5 µM
UO-31 renal
  GI50: 13.6 µM
  TGI: 39.8 µM

## O=C(O)CS(=O)(=O)C(c1ccccc1)c1ccccc1
A498 renal
  TGI: > 100 µM
A549 NSCLC
  TGI: > 100 µM
EKVX NSCLC
  TGI: > 100 µM
K-562 leukemia
  TGI: > 100 µM
MCF7 breast
  TGI: > 100 µM
MDA-MB-231 breast
  TGI: > 100 µM
OVCAR-4 ovarian
  TGI: > 100 µM
SF-268 CNS
  TGI: > 100 µM
SK-MEL-28 melanoma
  TGI: > 100 µM
UO-31 renal
  TGI: > 100 µM

## Cc1ccc(C(=O)Nc2ccc(S(=O)(=O)O)c3cc(S(=O)(=O)O)cc(S(=O)(=O)O)c23)cc1NC(=O)c1cccc(N)c1
A498 renal
  TGI: > 100 µM
A549 NSCLC
  TGI: > 100 µM
EKVX NSCLC
  TGI: > 100 µM
K-562 leukemia
  TGI: > 100 µM
MCF7 breast
  TGI: > 100 µM
MDA-MB-231 breast
  TGI: > 100 µM
OVCAR-4 ovarian
  TGI: > 100 µM
SF-268 CNS
  TGI: > 100 µM
SK-MEL-28 melanoma
  TGI: > 100 µM
UO-31 renal
  TGI: > 100 µM

## CC1=CC(=O)c2c(O)cccc2C1=O
A498 renal
  TGI: 13.2 µM
A549 NSCLC
  TGI: 34.6 µM
EKVX NSCLC
  TGI: 3.08 µM
K-562 leukemia
  TGI: 2.52 µM
MCF7 breast
  TGI: 3.9 µM
MDA-MB-231 breast
  TGI: 3.64 µM
OVCAR-4 ovarian
  TGI: 3.26 µM
SF-268 CNS
  TGI: 3.96 µM
SK-MEL-28 melanoma
  TGI: 3.28 µM
UO-31 renal
  TGI: 2.98 µM

## O=C(Nc1cccc(Cl)c1)Nc1ncc(CCNc2ncnc3ccsc23)s1
A498 renal
  GI50: 2.51 µM and 1.17 µM
  TGI: 17.9 µM and > 10 µM
A549 NSCLC
  GI50: 0.748 µM and 0.493 µM
  TGI: 16.1 µM and > 10 µM
EKVX NSCLC
  GI50: 3.13 µM and 3.14 µM
  TGI: 19 µM and > 10 µM
K-562 leukemia
  GI50: 3.54 µM and 2.4 µM
  TGI: > 100 µM
MCF7 breast
  GI50: 1.17 µM and 1.31 µM
  TGI: 15 µM and > 10 µM
MDA-MB-231 breast
  GI50: 3.38 µM and 2.67 µM
  TGI: 17.4 µM and > 10 µM
OVCAR-4 ovarian
  GI50: 2.1 µM and 2.93 µM
  TGI: 11.9 µM and > 10 µM
SF-268 CNS
  GI50: 5.85 µM and 2.75 µM
  TGI: 29.6 µM and > 10 µM
SK-MEL-28 melanoma
  GI50: 3.85 µM and 2.42 µM
  TGI: 17.4 µM and > 10 µM
UO-31 renal
  GI50: 6.01 µM and 3.22 µM
  TGI: 28.7 µM and > 10 µM

## CCc1ccc(NCc2cc(OC)c(OC)c(OC)c2)cc1
A498 renal
  GI50: 2.28 µM and 3.85 µM
  TGI: 20.6 µM and 49 µM
A549 NSCLC
  GI50: 0.693 µM and 0.216 µM
  TGI: 98.2 µM and > 92.2 µM
EKVX NSCLC
  TGI: > 96.1 µM and 84.3 µM
K-562 leukemia
  GI50: 0.111 µM
  TGI: 26.4 µM and 52.4 µM
MCF7 breast
  TGI: 24.8 µM
MDA-MB-231 breast
  GI50: 1.27 µM
  TGI: > 100 µM
OVCAR-4 ovarian
  TGI: > 100 µM
SF-268 CNS
  GI50: 0.862 µM and 1.78 µM
  TGI: 43.6 µM and 64.8 µM
SK-MEL-28 melanoma
  GI50: 1.27 µM and 0.185 µM
  TGI: > 75.2 µM and 69.6 µM
UO-31 renal
  GI50: 1.37 µM and 3.95 µM
  TGI: 55.8 µM and 62.6 µM

## CC1=C(C(=O)OCc2ccccc2)C(c2ccc3c(c2)OCO3)n2c(nc3ccccc32)N1 (configuration not stated)
A498 renal
  GI50: 0.362 µM
  TGI: > 100 µM
A549 NSCLC
  GI50: 0.69 µM
  TGI: > 100 µM
EKVX NSCLC
  GI50: 0.692 µM
  TGI: > 100 µM
K-562 leukemia
  GI50: 0.276 µM
  TGI: > 100 µM
MCF7 breast
  GI50: 0.236 µM
  TGI: > 100 µM
MDA-MB-231 breast
  GI50: > 92.6 µM
  TGI: > 100 µM
OVCAR-4 ovarian
  GI50: 13.3 µM
  TGI: > 100 µM
SF-268 CNS
  GI50: 0.513 µM
  TGI: > 100 µM
SK-MEL-28 melanoma
  GI50: > 100 µM
  TGI: > 100 µM
UO-31 renal
  GI50: 0.544 µM
  TGI: > 79.5 µM

## CCN1C(=O)N(CC)C2C1NN=c1s/c(=C3\C(=O)N(C(C)C)c4ccccc43)c(=O)n12 (configuration not stated)
A498 renal
  GI50: 0.239 µM
  TGI: 0.91 µM
A549 NSCLC
  GI50: 0.459 µM
  TGI: > 100 µM
EKVX NSCLC
  GI50: 0.606 µM
  TGI: > 100 µM
K-562 leukemia
  GI50: 0.329 µM
  TGI: > 100 µM
MCF7 breast
  GI50: 0.396 µM
  TGI: > 100 µM
MDA-MB-231 breast
  GI50: 0.434 µM
  TGI: 15.4 µM
OVCAR-4 ovarian
  GI50: 1.6 µM
  TGI: > 100 µM
SF-268 CNS
  GI50: 0.722 µM
  TGI: > 70.3 µM
SK-MEL-28 melanoma
  GI50: 1.07 µM
  TGI: > 100 µM
UO-31 renal
  GI50: 0.636 µM
  TGI: > 100 µM

## NC(=O)[C@H]1CCN(c2ncnc(N)c2F)C[C@@H]1N1CCC[C@@H](Nc2cc(Cl)cc(C(F)(F)F)c2)C1=O
A498 renal
  GI50: 3.25 µM
  TGI: 18.7 µM
A549 NSCLC
  GI50: 15.8 µM
  TGI: > 100 µM
EKVX NSCLC
  GI50: 28.7 µM
  TGI: 77.1 µM
K-562 leukemia
  GI50: 18.4 µM
  TGI: > 100 µM
MCF7 breast
  GI50: 13.1 µM
  TGI: 52.4 µM
MDA-MB-231 breast
  GI50: 14.3 µM
  TGI: 32.6 µM
OVCAR-4 ovarian
  GI50: 15.6 µM
  TGI: 95.3 µM
SF-268 CNS
  GI50: 23.8 µM
  TGI: > 100 µM
SK-MEL-28 melanoma
  GI50: 18.5 µM
  TGI: 44.3 µM
UO-31 renal
  GI50: 9.16 µM
  TGI: > 100 µM

## N#Cc1ncc(/N=C/c2ccc(N(CCCl)CCCl)cc2)s1
A498 renal
  GI50: 1.63 µM
  TGI: 4.4 µM
A549 NSCLC
  GI50: 28.2 µM
  TGI: > 100 µM
EKVX NSCLC
  GI50: 42.2 µM
  TGI: > 100 µM
K-562 leukemia
  GI50: 7.51 µM
  TGI: > 100 µM
MCF7 breast
  GI50: 8.85 µM
  TGI: > 100 µM
MDA-MB-231 breast
  GI50: 50.2 µM
  TGI: > 100 µM
OVCAR-4 ovarian
  GI50: 41.8 µM
  TGI: > 100 µM
SF-268 CNS
  GI50: 15.6 µM
  TGI: > 100 µM
SK-MEL-28 melanoma
  GI50: 79.7 µM
  TGI: > 100 µM
UO-31 renal
  GI50: 6.26 µM
  TGI: 30 µM

## c1ccc2[nH]c(-c3ccc(N4CCN(c5ccc(-c6nc7ccccc7[nH]6)cc5)CC4)cc3)nc2c1
A498 renal
  GI50: 54.8 µM
  TGI: > 100 µM
A549 NSCLC
  GI50: > 100 µM
  TGI: > 100 µM
EKVX NSCLC
  GI50: 25.7 µM
  TGI: > 100 µM
K-562 leukemia
  GI50: 38.4 µM
  TGI: > 100 µM
MCF7 breast
  GI50: 34.5 µM
  TGI: > 100 µM
MDA-MB-231 breast
  GI50: > 100 µM
  TGI: > 100 µM
OVCAR-4 ovarian
  GI50: > 100 µM
  TGI: > 100 µM
SF-268 CNS
  GI50: > 100 µM
  TGI: > 100 µM
SK-MEL-28 melanoma
  GI50: 43 µM
  TGI: > 100 µM
UO-31 renal
  GI50: > 100 µM
  TGI: > 100 µM

## Nc1ncnc2sc(=S)c3c(c12)CCC3
A498 renal
  GI50: 28.2 µM
  TGI: 79.5 µM
A549 NSCLC
  GI50: 44.8 µM
  TGI: > 100 µM
EKVX NSCLC
  GI50: 18.9 µM
  TGI: 58.8 µM
K-562 leukemia
  GI50: 36.1 µM
  TGI: > 100 µM
MCF7 breast
  GI50: 25.3 µM
  TGI: 92.8 µM
MDA-MB-231 breast
  GI50: 30.4 µM
  TGI: > 100 µM
OVCAR-4 ovarian
  GI50: 69.8 µM
  TGI: > 100 µM
SF-268 CNS
  GI50: 26.9 µM
  TGI: 75.6 µM
SK-MEL-28 melanoma
  GI50: > 100 µM
  TGI: > 100 µM
UO-31 renal
  GI50: 43.8 µM
  TGI: > 100 µM

## CC1Oc2cc3c(-c4c(O)cc(O)c5c(O)c6c(cc45)OC(C)C(C)C6=O)c(O)cc(O)c3c(O)c2C(=O)C1C (configuration not stated)
A498 renal
  TGI: 0.784 µM
A549 NSCLC
  TGI: 1.29 µM
EKVX NSCLC
  TGI: 0.711 µM
K-562 leukemia
  TGI: 0.627 µM
MCF7 breast
  TGI: 3.75 µM
MDA-MB-231 breast
  TGI: 0.378 µM
OVCAR-4 ovarian
  TGI: 4.98 µM
SF-268 CNS
  TGI: 2.46 µM
SK-MEL-28 melanoma
  TGI: 1.96 µM
UO-31 renal
  TGI: 1.54 µM
